Laboratory results reported in patent publication US20210322397A1, “METHOD TO PREVENT AND TREAT GINGIVAL RECESSION BY CALCIUM CHANNEL BLOCKERS, ANGIOTENSIN CONVERTING ENZYME INHIBITORS, AND ANGIOTENSIN RECEPTOR BLOCKERS” (priority 2018, published 2021).
Like-named read-outs stand apart in the source and are kept apart here.

What was measured:
gingival recession [1] = settings: patient with gingival recession throughout the mouth
Excerpt: (§1) A patient is diagnosed with gingival recession throughout the mouth.
A patient is diagnosed with gingival recession throughout the mouth. A composition comprising the ACE inhibitor enalapril is directly applied to the tissue of the gum on one side of the mouth while the other side is left untreated.
A patient is diagnosed with gingival recession throughout the mouth. A composition comprising the angiotensin receptor blocker losartan is directly applied to the tissue of the gum on one side of the mouth while the other side is left untreated.
as §1
A patient is diagnosed with gingival recession throughout the mouth. A composition comprising the ACE inhibitor enalapril is administered by injection into the tissue of the gum on one side of the mouth while the other side is left untreated.
A patient is diagnosed with gingival recession throughout the mouth. A composition comprising the angiotensin receptor blocker losartan is administered by injection into the tissue of the gum on one side of the mouth while the other side is left untreated.

gingival recession [2] = settings: patient previously successfully treated, after a period of time
Method: A composition comprising the ACE inhibitor enalapril is directly applied to the tissue of the gum on one side of the mouth while the other side is left untreated.
A composition comprising the angiotensin receptor blocker losartan is directly applied to the tissue of the gum on one side of the mouth while the other side is left untreated.
A composition comprising the ACE inhibitor enalapril is administered by injection into the tissue of the gum on one side of the mouth while the other side is left untreated.
A composition comprising the angiotensin receptor blocker losartan is administered by injection into the tissue of the gum on one side of the mouth while the other side is left untreated.

[3] = composition administered by injection into the tissue of the gum on one side
[4] = composition directly applied to the tissue of the gum on one side

Compound	symptoms of gingival recession, treated side versus untreated side (gingival recession [1]; [3])	symptoms of gingival recession, treated side versus untreated side (gingival recession [1]; [4])	recurrence of symptoms of gingival recession, treated side versus untreated side (gingival recession [2]; [3])	recurrence of symptoms of gingival recession, treated side versus untreated side (gingival recession [2]; [4])
CCOC(=O)[C@H](CCc1ccccc1)N[C@@H](C)C(=O)N1CCC[C@H]1C(=O)O [enalapril]	reduced symptoms of gingival recession	reduced symptoms of gingival recession	free of symptoms of gingival recession	free of symptoms of gingival recession
CCCCc1nc(Cl)c(CO)n1Cc1ccc(-c2ccccc2-c2nn[nH]n2)cc1 [losartan]	reduced symptoms of gingival recession	reduced symptoms of gingival recession	free of symptoms of gingival recession	free of symptoms of gingival recession
